What was measured:
MCF7-C181 cells [1] = experiment: Cell viability, CCK-8 assay; assay type: cell-based, human; conditions: 48 hours
Text: (§1) In addition to serving as an activator for intein splicing, 4-HT is also known as the active metabolite of tamoxifen, an FDA-approved drug for treating breast cancer patients. Breast cancer cells also have elevated OGT expression (39) and decreased levels of OGA (40, 41), resulting in elevated O-GlcNAcylation in the proteome. OGT is usually required for tumor growth and metastasis (39), and low OGA expression is correlated with poor survival in breast cancer patients (FIG. 13). The ER positive breast cancer-derived MCF-7 cell line is sensitive to tamoxifen and 4-HT, resulting in suppression of cell proliferation, yet drug resistance occurs after long-term treatment (42). […] To determine if reduction of O-GlcNAc sensitized MCF-7 cells to 4-HT treatment, it was assessed whether 4-HT induced inhibition of breast cancer cell proliferation and OGA-intein activation worked synergistically to accelerate cell death (FIG. 5A). […] Next, these two cell lines were treated with 4-HT at increasing concentrations, and cell viability was measured after 48 hours. […] Given that 4-HT promoted MCF-7 cell death through apoptosis (43), the apoptosis of these cells under 4-HT treatment was further analyzed through flow cytometry analyses following Annexin V and DAPI staining. […]
(§2) Cell viability assay. Cell viability was assessed by CCK-8 assay. […]

MCF7-C181_D174N cells = experiment: Cell viability, CCK-8 assay; assay type: cell-based, human; conditions: 48 hours
Text: as §1, §2

regular MCF-7 cells = experiment: Cell viability, CCK-8 assay; assay type: cell-based, human; conditions: 48 hours
Text: as §1, §2

MCF7-C181_D174N = experiment: Apoptosis, Annexin V/DAPI flow cytometry; assay type: cell-based, human; conditions: 10 μM 4-HT for 24 hours
Text: as §1
(§3) Detection of cell apoptosis. […] Data was analyzed by FlowJo v10.

MCF7-C181 cells [2] = experiment: Apoptosis, Annexin V/DAPI flow cytometry; assay type: cell-based, human; conditions: 10 μM 4-HT for 24 hours
Text: as §1, §3

[3] = system: O-GlcNAcylated proteins in HEK293T cells; experiment: Quantitative proteomics after enrichment for O-GlcNAc; assay type: cell-based, Homo sapiens; conditions: 25 μM OSMI-4b for 10 hours
Protocol: To further assess the spatial deglycosylation mediated by these subcellularly localized OGA-intein variants, quantitative proteomics was performed following enrichment for O-GlcNAc (38) on cell lysates after expression of C181-NLS with 4-HT treatment for 2 hours and 24 hours, respectively, or the OGT inhibitor OSMI-4b (3) for comparison (FIG. 4E and FIGS. 12A, 12B, 12C).
Chemoenzymatic labeling of O-GlcNAcylated proteins. Purification of GalT1 (Y289L) enzyme and labeling of O-GlcNAcylated proteins with GalNAz were performed according to the procedure of Hsich-Wilson and co-workers (51). Briefly, cell samples in 15-cm dishes were harvested and washed by PBS once. Cells were lysed in 2% SDS/PBS by heating at 95° C. for 5 minutes, followed by sonication. Protein concentrations were determined and then subjected to reduction and alkylation using 25 mM DTT at 95° C. for 5 minutes and 50 mM iodoacetamide at room temperature for 1 hour, respectively. Proteins were precipitated using the methanol/chloroform mix (aqueous phase: CH3OH:CHCl3=4:4:1) and resuspended in 1% SDS, 20 mM HEPES (pH 7.9) buffer with a concentration of 3.75 mg/mL. […]
Quantitative chemical proteomics. […]

Row | Compound | 4-HT concentration giving almost complete cell survival inhibition (MCF7-C181 cells [1]) [µM] | 4-HT concentration required for suppressing survival (MCF7-C181_D174N cells) [µM] | 4-HT concentration required for suppressing survival (regular MCF-7 cells) [µM] | apoptotic cells (MCF7-C181_D174N) [%] | apoptotic cells (MCF7-C181 cells [2]) [%] | change of O-GlcNAc on nuclear and cytoplasmic proteins [3]
1 | CC/C(=C(\c1ccc(O)cc1)c1ccc(OCCN(C)C)cc1)c1ccccc1 [4-HT, 4-hydroxytamoxifen] | 5 | > 5 | > 5 | 6.09 | 6.84 | 
2 | CCOC(=O)CN(Cc1cccs1)C(=O)[C@H](NS(=O)(=O)c1cc2ccc(=O)[nH]c2cc1Cl)c1ccccc1OC [OSMI-4b] |  |  |  |  |  | mild reduction of O-GlcNAc on both nuclear and cytoplasmic proteins
